Results taken from the supplement of paper PMC10307832.

Columns and labels:
Test in all cases: relative viability (nuclei count vs DMSO), 5 days (fraction); higher = more cells survive
[1] = compound: CC1=CC=C(C=C1)C(=O)CN2C3=C(CCCC3)SC2=N [Pifithrin_alpha] + CCNC(=O)c1noc(-c2cc(C(C)C)c(O)cc2O)c1-c1ccc(CN2CCOCC2)cc1 [Luminespib] (partner 0.01 µM)
Method in brief: (§1)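 Each reported value is a median over duplicate plates. It expresses relative viability: treated-well nuclei count divided by vehicle-well nuclei count. Lung cancer cell lines in 1536-well plates were dosed by pin tool a day after seeding, alone with one drug or with a fixed anchor-drug dose plus five library-drug doses (not always all listed) in √10 steps, and nuclei were counted after 5 days.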

[2] = compound: CC1=CC=C(C=C1)C(=O)CN2C3=C(CCCC3)SC2=N [Pifithrin_alpha] + C[C@@H](Oc1cc(-c2cnn(C3CCNCC3)c2)cnc1N)c1c(Cl)ccc(F)c1Cl [Crizotinib] (partner 1 µM)
Method in brief: as §1

[3] = compound: CC1=CC=C(C=C1)C(=O)CN2C3=C(CCCC3)SC2=N [Pifithrin_alpha] + NC(=O)Nc1cc(-c2cccc(F)c2)sc1C(=O)N[C@H]1CCCNC1 [AZD7762] (partner 0.2 µM)
Method in brief: as §1

Axitinib + Lapatinib = compound: CNC(=O)c1ccccc1Sc1ccc2c(/C=C/c3ccccn3)n[nH]c2c1 [Axitinib] + CS(=O)(=O)CCNCc1ccc(-c2ccc3ncnc(Nc4ccc(OCc5cccc(F)c5)c(Cl)c4)c3c2)o1 [Lapatinib] (partner 2 µM)
Method in brief: as §1

Cell Line	relative viability ([1]; first compound 1 µM)	relative viability ([1]; first compound 10 µM)	relative viability ([1]; first compound 31.62 µM)	relative viability ([1]; first compound 100 µM)	relative viability ([2]; first compound 1 µM)	relative viability ([2]; first compound 3.162 µM)	relative viability ([2]; first compound 10 µM)	relative viability ([2]; first compound 31.62 µM)	relative viability ([2]; first compound 100 µM)	relative viability ([3]; first compound 1 µM)	relative viability ([3]; first compound 3.162 µM)	relative viability ([3]; first compound 10 µM)	relative viability ([3]; first compound 31.62 µM)	relative viability ([3]; first compound 100 µM)	relative viability (Axitinib + Lapatinib; first compound 0.005 µM)	relative viability (Axitinib + Lapatinib; first compound 0.01581 µM)	relative viability (Axitinib + Lapatinib; first compound 0.05 µM)	relative viability (Axitinib + Lapatinib; first compound 0.1581 µM)	relative viability (Axitinib + Lapatinib; first compound 0.5 µM)	relative viability ([1]; first compound 3.162 µM)
EKVX	0.885	0.826	0.726	0.769	1.02	0.716	0.725	0.46	0.738	0.685	0.562	0.592	0.463	0.424	0.178	0.226	0.222	0.216	0.183	
HCC-44	1.06	0.671	0.543	0.622	0.816	0.742	0.647	0.515	0.65	0.91	0.977	0.985	0.869	0.888	1.08	1.02	1.01	1.09	1.01	1.21
NCI-H1651	0.988	0.944	0.438	0.625	0.942	0.924	0.934	0.835	0.959	0.399	0.461	0.454	0.361	0.512	0.89	0.706	0.929	0.713	0.942	1.27
NCI-H1734	0.184	0.191	0.159	0.18	0.826	0.647	0.686	0.592	0.604	0.486	0.526	0.517	0.429	0.524	1.03	1.07	1.15	1.02	0.954	0.186
LU99A	0.304	0.244	0.206	0.281	0.565	0.633	0.496		0.699	0.359	0.459	0.341		0.352	0.879	0.987	0.885	1.04	1.04	0.302
NCI-H1437	1.27	1.08	0.728	0.947	1.05	0.962	0.892	0.763	1.02	1.21	1.21	1.11	0.735	0.942	0.851	0.743	0.91	0.733	0.926	1.2
NCI-H460	0.0365	0.0293	0.0251	0.0317	1.4	0.827	0.912		0.962	0.545	0.501	0.401		0.375	1.15	0.999	0.809	0.953	1.35	0.032
NCI-H2085		0.513	0.387	0.387	0.795	0.848	0.7	0.747	0.966	1	0.973	0.881	0.665	0.762	0.803	0.778	0.798	0.755	0.684	0.404
NCI-H322M	0.865	0.841	0.647	0.766	0.894	0.907	0.871	0.674	0.986	0.413	0.462	0.48	0.498	0.487	0.658	0.603	0.591	0.566	0.652	0.868
201T	1.23	0.917	0.8	0.766	1.04	0.902	0.862	0.808	0.765	0.669	0.773	0.781	0.461	0.627	1.01	1.03	1.07	1.05	0.966	0.805
NCI-H1755	0.5	0.562	0.315	0.272	0.858	0.78	0.771	0.634	0.864	0.433	0.498	0.46	0.41	0.434	1.06	0.998	1.06	1.04	0.99	0.601
NCI-H1666	1.05	0.877	0.821	0.645	0.665	0.63	0.549	0.474	0.316	0.767	0.717	0.677	0.581	0.491	0.767	0.741	0.608	0.62	0.946	1.01
PC-3 [JPC-3]	0.74	0.63	0.635	0.587	0.98	0.998	0.884	0.814	0.849		0.678		0.464	0.446	0.483		0.453	0.445	0.447	0.779
NCI-H358	0.462	0.26	0.247	0.324	0.616	0.589	0.516	0.428	0.625	0.582	0.489	0.496	0.427	0.413	0.46	0.401	0.437	0.374	0.469	0.478
NCI-H1975	0.291	0.199	0.189	0.181	0.881	0.8	0.659	0.537	0.611	0.508	0.485	0.501	0.512	0.38	1.02	0.841	0.899	0.871	0.953	0.151
LC-2-ad		1.01		0.601		0.505	0.425		0.473	0.969	0.849	0.705	0.6	0.642	0.935	0.99	1.06	0.985	1.03	1.14
NCI-H1993	0.716	0.704	0.621	0.66		0.771	0.815	0.797	0.794	0.528	0.665	0.69	0.538	0.569	0.952	0.971	0.841	0.735	0.731	0.658

Cell Line	relative viability ([1]; first compound 1 µM)	relative viability ([1]; first compound 10 µM)	relative viability ([1]; first compound 31.62 µM)	relative viability ([1]; first compound 100 µM)	relative viability ([2]; first compound 1 µM)	relative viability ([2]; first compound 3.162 µM)	relative viability ([2]; first compound 10 µM)	relative viability ([2]; first compound 31.62 µM)	relative viability ([2]; first compound 100 µM)	relative viability ([3]; first compound 1 µM)	relative viability ([3]; first compound 3.162 µM)	relative viability ([3]; first compound 10 µM)	relative viability ([3]; first compound 31.62 µM)	relative viability ([3]; first compound 100 µM)	relative viability (Axitinib + Lapatinib; first compound 0.005 µM)	relative viability (Axitinib + Lapatinib; first compound 0.01581 µM)	relative viability (Axitinib + Lapatinib; first compound 0.05 µM)	relative viability (Axitinib + Lapatinib; first compound 0.1581 µM)	relative viability (Axitinib + Lapatinib; first compound 0.5 µM)	relative viability ([1]; first compound 3.162 µM)
CAL-12T	0.277	0.521		0.186		0.656	0.58	0.5	0.555	0.548	0.658	0.62	0.401	0.476	0.712	0.693	0.609	0.645	0.624	0.327
H3255	0.744	0.965	0.642	0.964	0.762	0.948	0.826	0.469	0.656	0.716	0.95	0.801	0.683	0.637	0.272	0.241	0.244	0.263	0.239	0.843
NCI-H727	0.44	0.491		0.263	0.789	0.78	0.823	0.556	0.673	0.478	0.57	0.571	0.51	0.48	1.05	0.952	0.71	0.867	0.953	0.238
NCI-H1355	0.642	0.516	0.401	0.409	0.995	0.734	0.62	0.619	0.733	0.857	0.633	0.511	0.463	0.514	0.976	1.08	0.994	1	0.893	0.496
LXF-289	0.676	0.789	0.469	0.697	0.878	0.813	0.805	0.696	0.788	1.16	1.12	1.23	1.12	1.13	0.899	0.831	0.921	0.869	0.888	0.589
NCI-H3122	0.0988	0.0966		0.065	0.288	0.323	0.291	0.296	0.321	1.07	1.1	0.962	0.739	1.08	1.03	0.977	1.04	1.04	1.13	0.106
NCI-H838	0.248	0.263	0.237	0.198	0.829	0.746	0.667	0.496	0.625	0.875	0.909	0.832	0.744	0.884	1.29	0.853	1.11	1.01	1.03	0.292
RERF-LC-KJ	1.3	0.959	0.512	0.44	0.824	0.69	0.754	0.696	0.659	0.628	0.882	0.941	0.981	0.854	0.865	0.829	0.824	0.809	0.932	1.25
NCI-H2405	0.757	0.536	0.668	0.515	0.821	0.815	0.796	0.741	0.822		0.654	0.651	0.579	0.615	1.09	1.06	1.34	1.07	1.02	0.571
PC-14	0.134	0.149	0.0887	0.0663	0.998	0.827	0.741	0.699	0.703	0.217	0.194	0.251	0.213	0.263	0.294	0.288	0.402	0.278	0.332	0.147
A-427	1.07	1	0.678	0.828	1	0.85	0.857	0.574	0.932	0.692	0.675	0.666	0.644	0.672	1.1	1.01	1.08	1.06	1.06	0.917
HCC-827	0.747	0.803	0.439	0.863	0.87	0.928	0.875	0.693	0.82	0.159	0.177	0.189	0.189	0.154	0.209	0.169	0.138	0.186	0.212	0.741
ABC-1		0.766	0.508	0.262	1.09	0.999	1.22	0.817	0.597		0.977	0.8	0.726	0.679	1.19	1.28	1.01	1.32	1.21	0.642
EPLC-272H	0.279	0.564	0.226	0.16		0.921	0.805	0.601	1.05		0.233	0.212	0.196	0.215	0.97	0.889	0.906	0.975	0.94	0.264
BEN	0.191	0.401	0.493	0.398	0.878	1.03	1.05	0.84	1.34	0.608	0.753	0.722	0.533	0.656	0.695	0.648	0.592	0.563	0.497	0.285
LK-2	0.219	0.171		0.229	0.2	0.22	0.217		0.212	0.301	0.571	0.58		0.346	0.916		0.776	0.745	0.625	0.179
